# From PubChem BioAssay AID493133 (Sanford-Burnham Center for Chemical Genomics, 2011)
# Active and inactive are the calls of the source. The rule behind the calls is not given here.
# Target: Alkaline phosphatase, tissue-nonspecific isozyme (Homo sapiens) (UniProt P05186)
# Assay: TNAP enzyme activity modulation, counter to mouse IAP activators, SAR follow-up, selectivity assay for mouse IAP activator project, biochemical (AID 493133)
# Conditions: purified human TNAP enzyme, phosphatase activity counter-screen
# Sequence of Alkaline phosphatase, tissue-nonspecific isozyme (Homo sapiens) (P05186 whole entry, looked up): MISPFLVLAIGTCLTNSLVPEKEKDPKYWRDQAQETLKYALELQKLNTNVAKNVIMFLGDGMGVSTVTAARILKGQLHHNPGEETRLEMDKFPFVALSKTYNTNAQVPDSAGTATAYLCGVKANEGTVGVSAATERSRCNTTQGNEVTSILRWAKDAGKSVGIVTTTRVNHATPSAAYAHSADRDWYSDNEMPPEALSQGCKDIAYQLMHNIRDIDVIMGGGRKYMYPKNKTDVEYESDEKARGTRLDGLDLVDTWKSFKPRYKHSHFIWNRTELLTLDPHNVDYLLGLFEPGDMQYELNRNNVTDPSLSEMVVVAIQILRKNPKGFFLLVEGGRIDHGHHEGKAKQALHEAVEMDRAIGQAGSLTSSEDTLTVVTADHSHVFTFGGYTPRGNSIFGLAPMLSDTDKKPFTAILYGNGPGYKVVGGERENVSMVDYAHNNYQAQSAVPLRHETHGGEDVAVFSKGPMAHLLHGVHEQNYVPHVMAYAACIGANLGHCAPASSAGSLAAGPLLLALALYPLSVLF
row,Compound,EC50
1,CCc1nnc(NC(=O)CSc2sc3c(O)cc(=O)[nH]c3c2C#N)s1,> 100 µM (inactive)
2,CC(C)C(C(=O)NC1CCS(=O)(=O)C1)N1C(=O)/C(=C\c2ccco2)SC1=S (stereo not drawn),> 100 µM (inactive)
3,NS(=O)(=O)c1ccc(-c2ccc(/C=C3\SC(=S)N(C4CCS(=O)(=O)C4)C3=O)o2)cc1 (stereo not drawn),> 100 µM (inactive)
4,N#Cc1c(SCC(=O)Nc2nccs2)sc2c(O)cc(=O)[nH]c12,> 100 µM (inactive)
5,O=C(C1CCN(S(=O)(=O)c2ccc3[nH]c(=O)oc3c2)CC1)N1CC=C(c2ccccc2)CC1,> 100 µM (inactive)
6,O=C(CN1C(=O)/C(=C\c2ccco2)SC1=S)Nc1ccc(O)cc1C(=O)O,> 100 µM (inactive)
7,Cc1ccc(NC(=O)CSc2sc3c(O)cc(=O)[nH]c3c2C#N)c(F)c1,> 100 µM (inactive)
8,Cc1ccc(Cl)cc1NC(=O)CSc1sc2c(O)cc(=O)[nH]c2c1C#N,> 100 µM (inactive)
9,N#Cc1cccc(NC(=O)CSc2sc3c(O)cc(=O)[nH]c3c2C#N)c1,> 100 µM (inactive)
10,COC(=O)c1ccc(C)c(NC(=O)CSc2sc3c(O)cc(=O)[nH]c3c2C#N)c1,> 100 µM (inactive)
11,O=C(N/N=C/c1ccco1)c1cc(O)c(O)c(O)c1,> 100 µM (inactive)
12,Cc1ccc(/C=N/NC(=O)c2cc(O)c(O)c(O)c2)cc1,> 100 µM (inactive)
13,CC(C(=O)N(C)C1CCS(=O)(=O)C1)N1C(=O)/C(=C/c2ccco2)SC1=S (stereo not drawn),> 100 µM (inactive)
14,N#Cc1c(SCC(=O)Nc2cccc(F)c2)sc2c(O)cc(=O)[nH]c12,> 100 µM (inactive)

# Results, then the compound that gave them:
row,EC50,Compound
1,> 100 µM (inactive),O=C(CCCN1C(=O)/C(=C/c2ccco2)SC1=S)Nc1ccccc1
2,> 100 µM (inactive),COc1cccc(CNC(=O)CCNS(=O)(=O)c2ccc3[nH]c(=O)oc3c2)c1
3,> 100 µM (inactive),O=C(NCCc1ccc(Cl)cc1)C1CCCN(S(=O)(=O)c2ccc3[nH]c(=O)oc3c2)C1 (stereo not drawn)
4,> 100 µM (inactive),O=C(CN1C(=O)/C(=C\c2ccco2)SC1=S)Nc1cccc(C(=O)O)c1
5,> 100 µM (inactive),COc1ccccc1CNC(=O)CCNS(=O)(=O)c1ccc2[nH]c(=O)oc2c1
6,> 100 µM (inactive),O=C(CCN1C(=O)/C(=C/c2ccco2)SC1=S)Nc1ccc(O)cc1C(=O)O
7,> 100 µM (inactive),CSc1cccc(NC(=O)CCNS(=O)(=O)c2ccc3[nH]c(=O)oc3c2)c1
8,> 100 µM (inactive),COc1cc([N+](=O)[O-])ccc1NC(=S)NCCC(c1ccccc1)c1ccccc1
9,> 100 µM (inactive),CC(C(=O)NCCc1ccc(O)c(O)c1)N1C(=O)/C(=C\c2ccco2)SC1=S (stereo not drawn)
